The text below walks through data of patent US10106534B2 (CELGENE QUANTICEL RESEARCH, INC., priority 2014, dated 2018).

In experiment [1] the target is JMJD2C (Homo sapiens (Human), UniProt Q9H3R0). Briefly: In vitro enzyme inhibition assay for JMJD2C activity (TR-FRET). It counts as biochemical. In a few lines: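 Baculovirus JMJD2C (AA 2-372), 0.3 nM, with 300 nM biotin-H3K9me3 peptide and 2 μM α-ketoglutarate in HEPES pH 7.3 containing Fe(II) and ascorbate, 30 min at room temperature, 11-point dilutions. H3K9me2 product by TR-FRET (Eu-antibody/streptavidin-APC, 665/615 ratio); IC50 fitted.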
Background: In TR-FRET formats the signal depends on donor and acceptor labels being close together.

Experiment [2] deals with KYSE-150 esophageal carcinoma cell line. As to the kind of experiment: In vitro cell-based assay: cellular proliferation via BrdU incorporation (ELISA). More on the design: species or system human. The settings on record: Homo sapiens, KYSE-150, 168 hours compound incubation. In a few lines:
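KYSE-150 cells (JMJD2C-amplified; SMAD4 and TP53 mutant), 2,000/well, were treated after overnight attachment with an 11-point series (100 μM to 2 nM) for 168 h. Proliferation was read by BrdU ELISA (2 h labelling, anti-BrdU-peroxidase, TMB, 450 nm) and IC50 fitted.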

Sequence of JMJD2C (Q9H3R0 2-372): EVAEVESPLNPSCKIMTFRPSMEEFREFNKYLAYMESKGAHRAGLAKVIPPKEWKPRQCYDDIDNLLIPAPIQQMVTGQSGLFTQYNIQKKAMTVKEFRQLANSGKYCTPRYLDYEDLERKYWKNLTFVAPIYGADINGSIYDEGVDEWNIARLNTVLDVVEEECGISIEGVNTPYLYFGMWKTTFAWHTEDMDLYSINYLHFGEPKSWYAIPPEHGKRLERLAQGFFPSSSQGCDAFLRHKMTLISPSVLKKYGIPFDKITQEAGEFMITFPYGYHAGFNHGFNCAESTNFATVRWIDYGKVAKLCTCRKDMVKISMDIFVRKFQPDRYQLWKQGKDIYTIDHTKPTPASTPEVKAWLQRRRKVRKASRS

A word on the IC50: it is the concentration that gives 50% inhibition. Regarding `CN(c1ccc(C#N)cc1)c1ccc2c(c1)CCC[C@H]2CNc1cnccc1C(=O)O` [Example 103, 3-({[(1R)-6-[(4-cyanophenyl)(methyl)amino]-1,2,3,4-tetrahydronaphthalen-1-yl]methyl}amino)pyridine-4-carboxylic acid], the IC50 in experiment [1] and in experiment [2] was 100 to 1000 nM each time.
In the case of `CN(c1ccc2c(c1)OCC[C@H]2CNc1cnccc1C(=O)O)c1ccc(F)cc1F` [Example 104, 3-({[(4R)-7-[(2,4-difluorophenyl)(methyl)amino]-3,4-dihydro-2H-1-benzopyran-4-yl]methyl}amino)pyridine-4-carboxylic acid], the IC50 in experiment [1] and in experiment [2] was 100 to 1000 nM throughout.
Turning to `Cc1cccc(N(C)c2ccc3c(c2)OCC[C@H]3CNc2cnccc2C(=O)O)c1` [Example 105, 3-({[(4R)-7-[methyl(3-methylphenyl)amino]-3,4-dihydro-2H-1-benzopyran-4-yl]methyl}amino)pyridine-4-carboxylic acid], the IC50 in experiment [1] was 100 to 1000 nM; in experiment [2] it was at most 100 nM.
The matching figures for `O=C(O)c1ccncc1NC[C@@H]1CCCc2cc(N3CCCC3)ccc21` [Example 106, 3-({[(1R)-6-(pyrrolidin-1-yl)-1,2,3,4-tetrahydronaphthalen-1-yl]methyl}amino)pyridine-4-carboxylic acid]: 100 to 1000 nM and 100 to 1000 nM.
In the case of `CN(c1cc(F)cc(F)c1)c1ccc2c(c1)OCC[C@H]2CNc1cnccc1C(=O)O` [Example 109, 3-({[(4R)-7-[(3,5-difluorophenyl)(methyl)amino]-3,4-dihydro-2H-1-benzopyran-4-yl]methyl}amino)pyridine-4-carboxylic acid], the IC50 in experiment [1] and in experiment [2] was 100 to 1000 nM each time.
Regarding `CN(c1cccc(Cl)c1)c1ccc2c(c1)OCC[C@H]2CNc1cnccc1C(=O)O` [Example 110, 3-({[(4R)-7-[(3-chlorophenyl)(methyl)amino]-3,4-dihydro-2H-1-benzopyran-4-yl]methyl}amino)pyridine-4-carboxylic acid], the IC50 is 1000 to 10000 nM in experiment [1] and at most 100 nM in experiment [2].
Take `Cc1ccccc1N(C)c1ccc2c(c1)OCC[C@H]2CNc1cnccc1C(=O)O` [Example 111, 3-({[(4R)-7-[methyl(2-methylphenyl)amino]-3,4-dihydro-2H-1-benzopyran-4-yl]methyl}amino)pyridine-4-carboxylic acid]: the IC50 in experiment [1] and in experiment [2] was 100 to 1000 nM each time.
For the compound `COc1cc(N(C)c2ccc3c(c2)OCC[C@H]3CNc2cnccc2C(=O)O)ccc1F` [Example 112, 3-({[(4R)-7-[(4-fluoro-3-methoxyphenyl)(methyl)amino]-3,4-dihydro-2H-1-benzopyran-4-yl]methyl}amino)pyridine-4-carboxylic acid], the IC50 lay within 100 to 1000 nM in experiment [1] and 1000 to 10000 nM in experiment [2].
Turning to `COc1cc(N(C)c2ccc3c(c2)CCC[C@H]3CNc2cnccc2C(=O)O)ccc1F` [Example 114, 3-({[(1R)-6-[(4-fluoro-3-methoxyphenyl)(methyl)amino]-1,2,3,4-tetrahydronaphthalen-1-yl]methyl}amino)pyridine-4-carboxylic acid], the IC50 in experiment [1] and in experiment [2] was 100 to 1000 nM in each case.
Regarding `CN(c1cccc(C#N)c1)c1ccc2c(c1)CCC[C@H]2CNc1cnccc1C(=O)O` [Example 115, 3-({[(1R)-6-[(3-cyanophenyl)(methyl)amino]-1,2,3,4-tetrahydronaphthalen-1-yl]methyl}amino)pyridine-4-carboxylic acid], the IC50 in experiment [1] and in experiment [2] was 100 to 1000 nM throughout.
Regarding `COc1ccccc1-c1ccc2c(c1)OCC[C@H]2CNc1cnccc1C(=O)O` [Example 116, 3-({[(4R)-7-(2-methoxyphenyl)-3,4-dihydro-2H-1-benzopyran-4-yl]methyl}amino)pyridine-4-carboxylic acid], the IC50 in experiment [1] and in experiment [2] was 100 to 1000 nM throughout.
For the compound `CN(c1cccc(C#N)c1)c1ccc2c(c1)OCC[C@H]2CNc1cnccc1C(=O)O` [Example 117, 3-({[(4R)-7-[(3-cyanophenyl)(methyl)amino]-3,4-dihydro-2H-1-benzopyran-4-yl]methyl}amino)pyridine-4-carboxylic acid], the IC50 in experiment [1] and in experiment [2] was 100 to 1000 nM throughout.
Take `CN(c1ccc(C#N)cc1)c1ccc2c(c1)OCC[C@H]2CNc1cnccc1C(=O)O` [Example 119, 3-({[(4R)-7-[(4-cyanophenyl)(methyl)amino]-3,4-dihydro-2H-1-benzopyran-4-yl]methyl}amino)pyridine-4-carboxylic acid]: the half-inhibitory concentration (IC50) in experiment [1] and in experiment [2] was 100 to 1000 nM in each case.
Consider `CN(CC1CC1)c1ccc2c(c1)CCC[C@H]2CNc1cnccc1C(=O)O` [Example 120, 3-({[(1R)-6-[(cyclopropylmethyl)(methyl)amino]-1,2,3,4-tetrahydronaphthalen-1-yl]methyl}amino)pyridine-4-carboxylic acid], for which the IC50 in experiment [1] and in experiment [2] was 100 to 1000 nM in each case.
For the compound `COc1cccc(N(C)c2ccc3c(c2)CCC[C@H]3CNc2cnccc2C(=O)O)n1` [Example 121, 3-({[(1R)-6-[(6-methoxypyridin-2-yl)(methyl)amino]-1,2,3,4-tetrahydronaphthalen-1-yl]methyl}amino)pyridine-4-carboxylic acid], the IC50 in experiment [1] is 100 to 1000 nM; in experiment [2], at most 100 nM.
For `N#Cc1ccccc1-c1ccc2c(c1)OCC[C@H]2CNc1cnccc1C(=O)O` [Example 124, 3-({[(4R)-7-(2-cyanophenyl)-3,4-dihydro-2H-1-benzopyran-4-yl]methyl}amino)pyridine-4-carboxylic acid], the IC50 was 100 to 1000 nM in experiment [1] and 1000 to 10000 nM in experiment [2].
The matching figures for `CN(c1ccc2c(c1)CCC[C@H]2CNc1cnccc1C(=O)O)c1ccn(C)n1` [Example 125, 3-({[(1R)-6-[methyl(1-methyl-1H-pyrazol-3-yl)amino]-1,2,3,4-tetrahydronaphthalen-1-yl]methyl}amino)pyridine-4-carboxylic acid]: 100 to 1000 nM and 100 to 1000 nM.
`CN(c1ccc2c(c1)COC2)c1ccc2c(c1)OCC[C@H]2CNc1cnccc1C(=O)O` [Example 127, 3-({[(4R)-7-[(1,3-dihydro-2-benzofuran-5-yl)(methyl)amino]-3,4-dihydro-2H-1-benzopyran-4-yl]methyl}amino)pyridine-4-carboxylic acid]: the IC50 in experiment [1] and in experiment [2] was 100 to 1000 nM in each case.
In the case of `CN(c1ccc2c(c1)CCC2)c1ccc2c(c1)OCC[C@H]2CNc1cnccc1C(=O)O` [Example 131, 3-({[(4R)-7-[(2,3-dihydro-1H-inden-5-yl)(methyl)amino]-3,4-dihydro-2H-1-benzopyran-4-yl]methyl}amino)pyridine-4-carboxylic acid], the IC50 in experiment [1] is 100 to 1000 nM; in experiment [2], at most 100 nM.
Take `CN(c1ccc2c(c1)COC2)c1ccc2c(c1)CCC[C@H]2CNc1cnccc1C(=O)O` [Example 132, 3-({[(1R)-6-[(1,3-dihydro-2-benzofuran-5-yl)(methyl)amino]-1,2,3,4-tetrahydronaphthalen-1-yl]methyl}amino)pyridine-4-carboxylic acid]: the results for the IC50 in experiment [1] and in experiment [2] were 100 to 1000 nM and at most 100 nM, respectively.
With `CN(c1ccc2c(c1)CCC[C@H]2CNc1cnccc1C(=O)O)c1ccc2ccoc2c1` [Example 135, 3-({[(1R)-6-[(1-benzofuran-6-yl)(methyl)amino]-1,2,3,4-tetrahydronaphthalen-1-yl]methyl}amino)pyridine-4-carboxylic acid], the IC50 in experiment [1] is 100 to 1000 nM; in experiment [2] it was at most 100 nM.
As for `CN(c1ccc2c(c1)OCC[C@H]2CNc1cnccc1C(=O)O)c1ccc2occc2c1` [Example 136, 3-({[(4R)-7-[(1-benzofuran-5-yl)(methyl)amino]-3,4-dihydro-2H-1-benzopyran-4-yl]methyl}amino)pyridine-4-carboxylic acid], the IC50 in experiment [1] was 100 to 1000 nM; in experiment [2] it was at most 100 nM.
Turning to `CN(c1ccc2c(c1)OCC[C@H]2CNc1cnccc1C(=O)O)c1ccc2ccoc2c1` [Example 141, 3-({[(4R)-7-[(1-benzofuran-6-yl)(methyl)amino]-3,4-dihydro-2H-1-benzopyran-4-yl]methyl}amino)pyridine-4-carboxylic acid], the IC50 in experiment [1] and in experiment [2] was 100 to 1000 nM in each case.
For the compound `O=C(O)c1ccncc1NCC1OCCc2ccccc21` (stereo not drawn) [Example 142, 3-[(3,4-dihydro-1H-2-benzopyran-1-ylmethyl)amino]pyridine-4-carboxylic acid], the IC50 was 100 to 1000 nM in experiment [1] and over 10000 nM in experiment [2].
Regarding `CN(c1ccc2c(c1)CCC[C@H]2CNc1cnccc1C(=O)O)c1cccs1` [Example 144, 3-({[(1R)-6-[methyl(thiophen-2-yl)amino]-1,2,3,4-tetrahydronaphthalen-1-yl]methyl}amino)pyridine-4-carboxylic acid], the IC50 in experiment [1] is 100 to 1000 nM; in experiment [2], at most 100 nM.
The matching figures for `CN(c1ccccc1)c1ccc2c(c1)CCOC2CNc1cnccc1C(=O)O` (stereo not drawn) [Example 146, 3-[({6-[methyl(phenyl)amino]-3,4-dihydro-1H-2-benzopyran-1-yl}methyl)amino]pyridine-4-carboxylic acid]: 100 to 1000 nM and at most 100 nM.
As for `O=C(O)c1ccncc1NC[C@@H]1CCCc2cc(N(CCO)c3ccccc3)ccc21` [Example 147, 3-({[(1R)-6-[(2-hydroxyethyl)(phenyl)amino]-1,2,3,4-tetrahydronaphthalen-1-yl]methyl}amino)pyridine-4-carboxylic acid], the IC50 in experiment [1] and in experiment [2] was 100 to 1000 nM each time.
